The assay concerns the target T1, SIRT1 (Homo sapiens, UniProt Q96EB6).
T1 sequence (Q96EB6 1-747): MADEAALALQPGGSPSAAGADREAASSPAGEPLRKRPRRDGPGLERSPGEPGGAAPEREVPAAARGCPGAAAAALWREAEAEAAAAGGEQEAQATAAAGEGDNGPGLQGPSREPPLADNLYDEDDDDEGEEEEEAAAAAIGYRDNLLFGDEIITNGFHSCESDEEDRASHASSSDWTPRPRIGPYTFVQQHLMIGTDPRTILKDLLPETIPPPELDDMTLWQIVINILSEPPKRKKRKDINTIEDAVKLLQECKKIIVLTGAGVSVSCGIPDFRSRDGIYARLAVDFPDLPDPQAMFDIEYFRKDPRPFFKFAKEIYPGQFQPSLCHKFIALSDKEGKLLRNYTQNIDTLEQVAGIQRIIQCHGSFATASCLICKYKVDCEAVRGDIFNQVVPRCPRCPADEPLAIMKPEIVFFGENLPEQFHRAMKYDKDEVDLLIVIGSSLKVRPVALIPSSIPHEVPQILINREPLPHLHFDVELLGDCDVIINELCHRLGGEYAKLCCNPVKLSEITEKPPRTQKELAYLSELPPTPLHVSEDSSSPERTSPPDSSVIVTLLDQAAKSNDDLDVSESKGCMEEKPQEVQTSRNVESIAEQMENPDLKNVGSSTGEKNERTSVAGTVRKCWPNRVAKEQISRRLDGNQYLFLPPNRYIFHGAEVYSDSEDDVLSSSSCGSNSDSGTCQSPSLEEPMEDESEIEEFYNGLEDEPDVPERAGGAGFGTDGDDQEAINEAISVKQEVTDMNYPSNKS
The experiment in a line: mass spectrometry based SIRT1 deacetylation assay (activation). Type of assay: biochemical. The conditions noted are these: 0.5 μM peptide substrate, 120 μM βNAD+, 10 nM SIRT1, 25 min at 25° C.; for EC1.5 (concentration of test compound that results in 150% activation of SIRT1): NA = not active in the assay; for Emax: read-out: % FOLD ACT. (percent maximum fold activation of SIRT1). An excerpt: A mass spectrometry based assay was used to identify modulators of SIRT1 activity. The mass spectrometry based assay utilizes a peptide having 20 amino acid residues as follows: Ac-EE-K(biotin)-GQSTSSHSK(Ac)NleSTEG-K(5TMR)-EE-NH2 (SEQ ID NO: 1) wherein K(Ac) is an acetylated lysine residue and Nle is a norleucine. The peptide is labeled with the fluorophore 5TMR (excitation 540 nm/emission 580 nm) at the C-terminus. The sequence of the peptide substrate is based on p53 with several modifications. In addition, the methionine residue naturally present in the sequence was replaced with the norleucine because the methionine may be susceptible to oxidation during synthesis and purification.
Test compounds may be added to the reaction as described above. […] After the 25 minute incubation with SIRT1, 10 μL of 10% formic acid is added to stop the reaction. Reactions are sealed and frozen for later mass spec analysis. Determination of the mass of the substrate peptide allows for precise determination of the degree of acetylation (i.e. starting material) as compared to deacetylated peptide (product).
A control for inhibition of sirtuin activity is conducted by adding 1 μL of 500 mM nicotinamide as a negative control at the start of the reaction (e.g., permits determination of maximum sirtuin inhibition). A control for activation of sirtuin activity is conducted using 10 nM of sirtuin protein, with 1 μL of DMSO in place of compound, to determine the amount of deacetylation of the substrate at a given timepoint within the linear range of the assay. This timepoint is the same as that used for test compounds and, within the linear range, the endpoint represents a change in velocity.
For the above assay, SIRT1 protein was expressed and purified as follows. […] The protein was expressed by induction with 1 mM IPTG as an N-terminal His-tag fusion protein at 18° C. overnight and harvested at 30,000×g. Cells were lysed with lysozyme in lysis buffer (50 mM Tris-HCl, 2 mM Tris[2-carboxyethyl]phosphine (TCEP), 10 μM ZnCl2, 200 mM NaCl) and further treated with sonication for 10 min for complete lysis. The protein was purified over a Ni-NTA column (Amersham) and fractions containing pure protein were pooled, concentrated and run over a sizing column (Sephadex S200 26/60 global). The peak containing soluble protein was collected and run on an Ion-exchange column (MonoQ). Gradient elution (200 mM-500 mM NaCl) yielded pure protein. This protein was concentrated and dialyzed against dialysis buffer (20 mM Tris-HCl, 2 mM TCEP) overnight. The protein was aliquoted and frozen at −80° C. until further use.
Sirtuin modulating compounds that activated SIRT1 were identified using the assay described above and are shown below in Table 3. The EC1.5 values represent the concentration of test compounds that result in 150% activation of SIRT1. NT means that the compound was not tested using the indicated assay. NA means that the compound was not active in the indicated assay.

As to `COCCN1CCN(Cc2cnc3sc(-c4ccccc4NC(=O)c4cccc(-c5ccccc5)c4)nc3c2)CC1` [Compound 33], the “EC1.5 (concentration of test compound that results in 150% activation of SIRT1)” value is 91 NM and the Emax was 533%. `COCCN1CCN(Cc2cnc3sc(-c4ccccc4NC(=O)c4cccc(-c5ccccn5)c4)nc3c2)CC1` [Compound 34]: the “EC1.5 (concentration of test compound that results in 150% activation of SIRT1)” value worked out at 281 NM and the Emax came to 492%.

As to `COCCN1CCN(Cc2cnc3sc(-c4ccccc4NC(=O)c4cncc(-c5ccccc5)c4)nc3c2)CC1` [Compound 35], the “EC1.5 (concentration of test compound that results in 150% activation of SIRT1)” value was 554 NM and the Emax is 234%.

In the case of `O=C(Nc1ccccc1-c1nc2cc(CN[C@H]3CCNC3)cnc2s1)c1cccc(-c2ccccn2)c1` [Compound 37], the “EC1.5 (concentration of test compound that results in 150% activation of SIRT1)” value was found to be 507 NM and the Emax came to 422%. In the case of `O=C(Nc1ccccc1-c1nc2cc(CN3CCOCC3)cnc2s1)c1cccc(-c2ncccn2)c1` [Compound 38], the “EC1.5 (concentration of test compound that results in 150% activation of SIRT1)” value was 548 NM and the Emax worked out at 292%. Regarding `Cc1nc(-c2cccc(C(=O)Nc3ccccc3-c3nc4cc(CN5CCOCC5)cnc4s3)c2)cs1` [Compound 39], the “EC1.5 (concentration of test compound that results in 150% activation of SIRT1)” value was determined as 400 NM and the Emax amounted to 241%. Take `O=C(Nc1ccccc1-c1nc2cc(CN3CCOCC3)cnc2s1)c1cccc(-n2cccn2)c1` [Compound 40]: the “EC1.5 (concentration of test compound that results in 150% activation of SIRT1)” value stood at 182 NM and the Emax was determined as 397%. Take `COCCN1CCN(Cc2cnc3sc(-c4ccccc4NC(=O)c4cccc(-c5csc(C)n5)c4)nc3c2)CC1` [Compound 41]: the “EC1.5 (concentration of test compound that results in 150% activation of SIRT1)” value came to 652 NM and the Emax is 275%.

With `COCCN1CCN(Cc2cnc3sc(-c4ccccc4NC(=O)c4cccc(-c5ncccn5)c4)nc3c2)CC1` [Compound 42], the “EC1.5 (concentration of test compound that results in 150% activation of SIRT1)” value worked out at 656 NM and the Emax turned out to be 212%. For `O=C(Nc1ccccc1-c1nc2cc(CN3CC[C@@H](F)C3)cnc2s1)c1cccc(-n2cccn2)c1` [Compound 43], the “EC1.5 (concentration of test compound that results in 150% activation of SIRT1)” value worked out at 215 NM and the Emax came to 236%. In the case of `O=C(Nc1ccccc1-c1nc2cc(CN3CCNCC3)cnc2s1)c1cccc(-n2cccn2)c1` [Compound 44], the “EC1.5 (concentration of test compound that results in 150% activation of SIRT1)” value worked out at 397 NM and the Emax was determined as 603%. As for `COCCN1CCN(Cc2cnc3sc(-c4ccccc4NC(=O)c4cccc(-n5cccn5)c4)nc3c2)CC1` [Compound 45], the “EC1.5 (concentration of test compound that results in 150% activation of SIRT1)” value turned out to be 144 NM and the Emax worked out at 569%.

As to `Cc1nc(-c2cccc(C(=O)Nc3ccccc3-c3nc4cc(CN5CCNCC5)cnc4s3)c2)cs1` [Compound 46], the “EC1.5 (concentration of test compound that results in 150% activation of SIRT1)” value came to 503 NM and the Emax stood at 446%. As to `COCCN1CCN(Cc2cnc3sc(-c4ccccc4NC(=O)c4cccc(-c5ccccc5)n4)nc3c2)CC1` [Compound 47], the “EC1.5 (concentration of test compound that results in 150% activation of SIRT1)” value was found to be 82 NM. Take `O=C(Nc1ccccc1-c1nc2cc(CN3CCOCC3)cnc2s1)c1cccc(-c2ccccc2F)c1` [Compound 48]: the “EC1.5 (concentration of test compound that results in 150% activation of SIRT1)” value is 395 NM and the Emax amounted to 222%.

Regarding `O=C(Nc1ccccc1-c1nc2cc(CN3CCOCC3)cnc2s1)c1cccc(-c2cccc(F)c2)c1` [Compound 49], the “EC1.5 (concentration of test compound that results in 150% activation of SIRT1)” value was determined as 319 NM and the Emax was determined as 192%. `O=C(Nc1ccccc1-c1nc2cc(CN3CCOCC3)cnc2s1)c1cncc(-c2ccccc2F)c1` [Compound 50]: the “EC1.5 (concentration of test compound that results in 150% activation of SIRT1)” value came out at 533 NM and the Emax was 207%. Taken in the same sequence, the figures for `O=C(Nc1ccccc1-c1nc2cc(CN3CCOCC3)cnc2s1)c1cncc(-c2cccc(F)c2)c1` [Compound 51] were 1640 NM and 172%. For `O=C(Nc1ccccc1-c1nc2cc(CN3CCOCC3)cnc2s1)c1cccc(-c2ccccc2F)n1` [Compound 52] the same measures were 357 NM and 411%. `O=C(Nc1ccccc1-c1nc2cc(CN3CCOCC3)cnc2s1)c1cccc(-c2cccc(F)c2)n1` [Compound 53]: the “EC1.5 (concentration of test compound that results in 150% activation of SIRT1)” value worked out at 66 NM and the Emax was determined as 837%.

For `O=C(Nc1ccccc1-c1nc2cc(CN3CC[C@@H](F)C3)cnc2s1)c1cccc(-c2cccc(F)c2)n1` [Compound 54], the “EC1.5 (concentration of test compound that results in 150% activation of SIRT1)” value is recorded as 110 NM and the Emax came to 538%. For `O=C(Nc1ccccc1-c1nc2cc(CN3CCOCC3)cnc2s1)c1cccc(-c2ccccc2)n1` [Compound 55] the same measures were 74 NM and more than 500%. For `COCCN1CCN(Cc2cnc3sc(-c4ccccc4NC(=O)c4ccnc(-c5ccccc5)c4)nc3c2)CC1` [Compound 56] the same measures were 458 NM and 389%. As for `COCCN1CCN(Cc2cnc3sc(-c4ccccc4NC(=O)c4cccc(-c5cccc(F)c5)n4)nc3c2)CC1` [Compound 57], the “EC1.5 (concentration of test compound that results in 150% activation of SIRT1)” value was 41 NM and the Emax is more than 500%. For `COCCN1CCN(Cc2cnc3sc(-c4ccccc4NC(=O)c4cccc(-c5cccnc5)c4)nc3c2)CC1` [Compound 58], the “EC1.5 (concentration of test compound that results in 150% activation of SIRT1)” value amounted to 884 NM and the Emax turned out to be 370%. Consider `COCCN1CCN(Cc2cnc3sc(-c4ccccc4NC(=O)c4cccc(-c5ccncc5)c4)nc3c2)CC1` [Compound 59], for which the “EC1.5 (concentration of test compound that results in 150% activation of SIRT1)” value was found to be 492 NM and the Emax came to 279%. In the case of `O=C(Nc1ccccc1-c1nc2cc(CN3CCCC3)cnc2s1)c1cccc(-c2ccccc2)n1` [Compound 60], the “EC1.5 (concentration of test compound that results in 150% activation of SIRT1)” value stood at 144 NM and the Emax was determined as 477%.

Consider `O=C(Nc1ccccc1-c1nc2cc(CN3CCCC3)cnc2s1)c1cccc(-c2cccc(F)c2)n1` [Compound 61], for which the “EC1.5 (concentration of test compound that results in 150% activation of SIRT1)” value is 78 NM and the Emax was more than 500%.

`O=C(Nc1ccccc1-c1nc2cc(CN3CCNCC3)cnc2s1)c1cc(-c2ccccc2)no1` [Compound 62]: the “EC1.5 (concentration of test compound that results in 150% activation of SIRT1)” value is on record as 592 NM and the Emax was found to be 231%. With `O=C(Nc1ccccc1-c1nc2cc(CN3CCNCC3)cnc2s1)c1cnc2ccccc2n1` [Compound 63], the “EC1.5 (concentration of test compound that results in 150% activation of SIRT1)” value is given as 859 NM and the Emax amounted to 303%.

Take `O=C(Nc1ccccc1-c1nc2cc(CN3CCNCC3)cnc2s1)c1ccc2ccccc2n1` [Compound 64]: the “EC1.5 (concentration of test compound that results in 150% activation of SIRT1)” value was found to be 260 NM and the Emax is more than 500%.

For the compound `O=C(Nc1ccccc1-c1nc2cc(CN3CCOCC3)cnc2s1)c1cnc2ccccc2n1` [Compound 65], the Emax was 100%.

These data come from patent US8268862B2, “Sirtuin modulating compounds” (Sirtris Pharmaceuticals, Inc., priority 2007, dated 2012).
